Measured values taken from PubChem BioAssay (NCI).
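Briefly, cells in 96-well plates were exposed to five compound concentrations for 48 h, and endpoints were estimated by linear interpolation. TGI denotes the concentration required for complete inhibition of growth.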

Legend:
Test in all cases: inhibition of tumour cell growth, NCI panel, 48 h
CAKI-1 renal = system: CAKI-1 renal
COLO 205 colon = system: COLO 205 colon
DMS 114 small cell lung = system: DMS 114 small cell lung
EKVX NSCLC = system: EKVX NSCLC
NCI-H522 lung = system: NCI-H522 lung
SF-295 CNS = system: SF-295 CNS
SNB-75 CNS = system: SNB-75 CNS
SNB-78 CNS = system: SNB-78 CNS
TK-10 renal = system: TK-10 renal
UACC-257 melanoma = system: UACC-257 melanoma

Compound | TGI (CAKI-1 renal) [µM] | TGI (COLO 205 colon) [µM] | TGI (DMS 114 small cell lung) [µM] | TGI (EKVX NSCLC) [µM] | TGI (NCI-H522 lung) [µM] | TGI (SF-295 CNS) [µM] | TGI (SNB-75 CNS) [µM] | TGI (SNB-78 CNS) [µM] | TGI (TK-10 renal) [µM] | TGI (UACC-257 melanoma) [µM]
C[n+]1c(N)n(C(=O)OCc2ccccc2)c(=O)c2c1ncn2C(=O)OCc1ccccc1 | > 100 | > 100 | > 100 | > 100 | > 100 | > 100 | 65.9 | > 100 | > 100 | > 100
CC(C)(C)OC(=O)N1N=NC2C3OC(CC3=O)C21 (centres undefined) | > 100 | > 100 | > 100 | > 100 | > 100 | – | > 100 | > 100 | > 100 | > 100
NS(=O)(=O)c1ccc(NC(=O)COC(=O)c2cccc3c(=O)c4ccccc4[nH]c23)cc1 | > 100 | > 100 | 52.3 | > 100 | 43.5 | 52.6 | 38.5 | 44.5 | 77.1 | > 100
O=C(/C(=C/c1ccccc1)c1ccccc1)N1c2ccccc2CC1c1c[nH]c2ccccc12 (centres undefined) | > 100 | 24.7 | > 100 | > 100 | > 100 | > 100 | > 100 | > 100 | > 100 | > 100
COC(=O)Cc1nc2ccccc2o1 | > 100 | > 100 | > 100 | > 100 | > 100 | > 100 | > 100 | > 100 | > 100 | > 100
COC(=O)C1CC(C(=O)OC)c2nc3cc(C)c(C)cc3nc21 (centres undefined) | > 100 | > 100 | > 100 | > 100 | > 100 | > 100 | > 100 | > 100 | > 100 | > 100
